# From patent US20050222200A1, “AMIDE DERIVATIVES AS ION CHANNEL LIGANDS AND PHARMACEUTICAL COMPOSITIONS AND METHODS OF USING THE SAME” (Renovis, Inc., priority 2003, published 2005)
# Target: VR1 (Rattus norvegicus, UniProt O35433)
# Experiment: Calcium imaging assay: inhibition of capsaicin induced calcium influx in DRG neurons (Fura2, microscope)
# Format: cell-based
# Design: endogenous in cells; host or cells: DRG neurons
# Conditions: capsaicin stimulation; class symbols per legend
# Method in brief: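 Fura2-loaded rat DRG neurons imaged by microscope; test compound perfused 1 min, then capsaicin (250 nM) applied with compound for 20–60 s. Calcium influx followed as 340/380 nm fluorescence ratio; inhibition above 75% scored positive.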
# VR1, sequence (O35433 whole entry): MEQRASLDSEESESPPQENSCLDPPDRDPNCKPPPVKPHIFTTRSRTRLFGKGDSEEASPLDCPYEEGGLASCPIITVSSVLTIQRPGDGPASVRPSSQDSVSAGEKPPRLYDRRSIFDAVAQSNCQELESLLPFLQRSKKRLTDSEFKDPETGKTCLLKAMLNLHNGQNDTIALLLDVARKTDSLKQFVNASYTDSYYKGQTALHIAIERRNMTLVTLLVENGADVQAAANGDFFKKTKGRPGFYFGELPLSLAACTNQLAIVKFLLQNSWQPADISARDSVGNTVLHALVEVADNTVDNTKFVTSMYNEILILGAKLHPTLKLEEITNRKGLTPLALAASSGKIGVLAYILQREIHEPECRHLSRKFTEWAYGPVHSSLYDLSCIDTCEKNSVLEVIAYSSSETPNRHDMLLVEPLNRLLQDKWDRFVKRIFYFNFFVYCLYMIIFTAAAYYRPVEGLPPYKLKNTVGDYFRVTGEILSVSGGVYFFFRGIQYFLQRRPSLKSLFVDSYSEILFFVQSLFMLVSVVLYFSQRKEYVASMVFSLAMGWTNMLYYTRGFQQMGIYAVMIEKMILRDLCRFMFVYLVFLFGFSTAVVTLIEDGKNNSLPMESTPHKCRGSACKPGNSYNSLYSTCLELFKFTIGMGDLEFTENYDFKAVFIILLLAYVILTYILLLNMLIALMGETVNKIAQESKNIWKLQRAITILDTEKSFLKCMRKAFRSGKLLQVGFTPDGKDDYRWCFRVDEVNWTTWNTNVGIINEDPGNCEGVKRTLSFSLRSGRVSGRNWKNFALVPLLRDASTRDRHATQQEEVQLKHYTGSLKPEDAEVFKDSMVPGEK
row,SMILES,inhibition of calcium ion influx induced by capsaicin stimulation
1,COc1cc(CNC(=O)c2ccc(/C(C)=C/C(C)(C)C)cc2)cc(OC)c1OC [Compound 305],+ (compound exhibited 0-25% inhibition of calcium ion influx induced by capsaicin stimulation)
2,O=C(Nc1ccc(Cl)cc1)c1ccc(/C=C/C(F)(F)F)cc1 [Compound 390],++ (compound exhibited 25-50% inhibition of calcium ion influx induced by capsaicin stimulation)
3,CC(C)c1ccc(NC(=O)c2ccc(/C=C/C(F)(F)F)cc2)cc1 [Compound 394],++ (compound exhibited 25-50% inhibition of calcium ion influx induced by capsaicin stimulation)
4,COc1ccc(NC(=O)c2ccc(/C=C/C(F)(F)F)cc2)cc1Cl [Compound 391],+ (compound exhibited 0-25% inhibition of calcium ion influx induced by capsaicin stimulation)
5,CC(C)(C)C#Cc1ccc(C(=O)Nc2cnc3ccccc3c2)cc1 [Compound 379],++++ (compound exhibited 75% or greater inhibition of calcium ion influx induced by capsaicin stimulation)
6,CC(C)(C)C#Cc1ccc(C(=O)Nc2cccc(S(C)(=O)=O)c2)cn1 [Compound 411],++++ (compound exhibited 75% or greater inhibition of calcium ion influx induced by capsaicin stimulation)
7,CC(C)(C)C#Cc1ccc(C(=O)Nc2cnc3ccccc3c2)cn1 [Compound 429],++++ (compound exhibited 75% or greater inhibition of calcium ion influx induced by capsaicin stimulation)
8,CCC/C=C/c1ccc(C(=O)NCc2cccnc2)cc1 [Compound 267],+ (compound exhibited 0-25% inhibition of calcium ion influx induced by capsaicin stimulation)
9,CC(C)(C)C#Cc1ccc(C(=O)Nc2cccc3cnccc23)cc1 [Compound 378],++++ (compound exhibited 75% or greater inhibition of calcium ion influx induced by capsaicin stimulation)
10,C/C(=C\C(C)(C)C)c1ccc(C(=O)Nc2cccc(C#N)c2)cc1 [Compound 332],+++ (compound exhibited 50-75% inhibition of calcium ion influx induced by capsaicin stimulation)
11,COc1cccc(NC(=O)c2ccc(C#CC(C)(C)C)cc2)c1 [Compound 364],++++ (compound exhibited 75% or greater inhibition of calcium ion influx induced by capsaicin stimulation)
12,CCNC(=O)c1ccc(/C(C)=C/C(C)(C)C)cc1 [Compound 315],+ (compound exhibited 0-25% inhibition of calcium ion influx induced by capsaicin stimulation)
13,CCC/C=C/c1ccc(C(=O)Nc2ccc(C(C)(C)C)cc2)cc1 [Compound 246],+ (compound exhibited 0-25% inhibition of calcium ion influx induced by capsaicin stimulation)
14,CCC/C=C/c1ccc(C(=O)Nc2ccc(Cl)c(C(F)(F)F)c2)cc1 [Compound 242],++ (compound exhibited 25-50% inhibition of calcium ion influx induced by capsaicin stimulation)
15,CC(C)(C)C#Cc1ccc(C(=O)Nc2ccc3c(c2)OCCO3)cn1 [Compound 423],++++ (compound exhibited 75% or greater inhibition of calcium ion influx induced by capsaicin stimulation)
16,CCCCc1ccc(NC(=O)c2ccc(/C=C/C(F)(F)F)cc2)cc1 [Compound 395],+ (compound exhibited 0-25% inhibition of calcium ion influx induced by capsaicin stimulation)
17,CCC/C=C/c1ccc(C(=O)NCc2ccc(OC)c(OC)c2)cc1 [Compound 238],+ (compound exhibited 0-25% inhibition of calcium ion influx induced by capsaicin stimulation)
18,CCC/C=C/c1ccc(C(=O)NCC(C)C)cc1 [Compound 236],+ (compound exhibited 0-25% inhibition of calcium ion influx induced by capsaicin stimulation)
